Experimental data as given in patent publication US8133917B2, “Pterostilbene as an agonist for the peroxisome proliferator-activated receptor alpha isoform” (The United States of America as represented by the …, priority 2004, dated 2012).

Key:
[1] = Hamster feeding study: plasma lipoprotein cholesterol, glucose, weights; format: in vivo, golden Syrian hamsters; conditions: hamsters; for plasma LDL cholesterol lower compared to control group / total plasma cholesterol lower compared to control group: 25 mg/kg diet
Experimental: Male golden Syrian hamsters (Charles River, Wilmington, Mass.), initial weight ranging from 34-41 g, were fed a powdered stock diet (Rodent Lab Chow 5001, Purina Mills, St. Louis, Mo.) for 7 days. The animals were placed in individual wire-bottom cages in a room kept at 20-22° C., 60% rh and 12 h light and dark cycle. Following the initial 7 day period, 8-10 animals were randomly assigned from a weight sorted list to each of five test diets (α-cellulose control and test substance). Food intake was measured twice each week and body weights were monitored once a week. After 21 days on the treatment diets, the animals were killed, blood was collected and analyzed for total cholesterol by the cholesterol oxidase method and lipoprotein cholesterol, by size exclusion chromatography, as previously described (German et al. 1996. Nutrition Res. 16: 1239-1249). All animal procedures were approved by the Animal Care and Use Committee, Western Regional Research Center, USDA, Albany, Calif. and conformed to the principles in “Guide for the Care and Use of Laboratory Animals” (Committee on Care and Use of Laboratory Animals 1985). Plasma blood glucose was determined using a blood glucose meter (Fast Glucose Meter-Precision Xtra, MediSense, Bedford, Mass., USA). Diets were prepared by dissolving powdered cholesterol into warmed butterfat, followed by the addition of corn and fish oil. The small amounts of test ingredients were dissolved in about 50 ml of ethanol and added to the stirring dry ingredients. The liquid fat was also added to the dry ingredients while stirring. Differences between treatments were tested by two-tailed t-test assuming equal variance, and were considered significant at p<0.05.

H4IIEC3 cells = experiment: Toxicity to H4IIEC3 cells during the reporter assay; format: cell-based, rat; conditions: 100 and 300 μM
[2] = Hamster feeding study: plasma lipoprotein cholesterol, glucose, weights; format: in vivo, golden Syrian hamsters; conditions: hamsters; plant materials at about 10% of total diet; data not shown
PPARα = target: T1, PPARα (Rattus norvegicus, UniProt P37230); experiment: Activation of PPARα in H4IIEC3 cells transfected with PPRE-AB-luciferase reporter gene; format: cell-based
T1 construct: endogenous in cells; host or cells: H4IIEC3 rat hepatoma cells
T1 sequence (P37230 1-468): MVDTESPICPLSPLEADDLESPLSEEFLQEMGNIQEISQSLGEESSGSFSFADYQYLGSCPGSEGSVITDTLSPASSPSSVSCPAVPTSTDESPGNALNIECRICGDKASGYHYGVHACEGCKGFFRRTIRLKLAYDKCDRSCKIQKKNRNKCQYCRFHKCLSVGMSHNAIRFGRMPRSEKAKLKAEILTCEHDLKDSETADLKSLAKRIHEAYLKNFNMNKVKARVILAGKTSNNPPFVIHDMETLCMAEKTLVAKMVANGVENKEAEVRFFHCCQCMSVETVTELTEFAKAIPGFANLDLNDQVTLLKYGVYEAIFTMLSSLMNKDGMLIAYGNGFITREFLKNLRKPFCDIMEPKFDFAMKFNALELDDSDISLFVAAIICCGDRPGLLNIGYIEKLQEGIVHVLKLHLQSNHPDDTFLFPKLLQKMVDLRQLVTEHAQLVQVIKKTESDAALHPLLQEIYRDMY

SMILES	plasma LDL cholesterol lower compared to control group [1] [%]	total plasma cholesterol lower compared to control group [1] [%]	Final Weights: Body wt (AVG) ([1]; 25 ppm in diet, 21 days) [g]	Final Weights: Liver wt (AVG) ([1]; 25 ppm in diet, 21 days) [g]	LDL/HDL (AVG) ([1]; 25 ppm in diet, 21 days)	Plasma Lipoprotein Cholesterol HDL (AVG) ([1]; 25 ppm in diet, 21 days) [mg/dL]	Plasma Lipoprotein Cholesterol LDL (AVG) ([1]; 25 ppm in diet, 21 days) [mg/dL]	Plasma Lipoprotein Cholesterol Total (AVG) ([1]; 25 ppm in diet, 21 days) [mg/dL]	Plasma Lipoprotein Cholesterol VLDL (AVG) ([1]; 25 ppm in diet, 21 days) [mg/dL]	Plasma glucose (AVG) ([1]; 25 ppm in diet, 21 days)	toxicity to H4IIEC3 cells (H4IIEC3 cells)	lowering of plasma cholesterol levels versus freeze-dried tomato and eggplant materials [2]	induction of luciferase activity (PPARα; all the concentrations tested (1, 10, 100, 300 μM))	Liver/Body (AVG) ([1]; 25 ppm in diet, 21 days)	PPARα activation (luciferase activity) (PPARα; 100 μM, H4IIEC3 cells) [relative luciferase units]	maximal luciferase response compared to control (PPARα; 100 μM, H4IIEC3 cells, 30 hr, n=4)	agonist / activator of PPARα (PPARα; H4IIEC3 cells)
Oc1ccc(C=Cc2cc(O)cc(O)c2)cc1 [resveratrol]	20	14	109.5	7.6	2.2	127.1	257.4	468.2	83.6	191	toxic	more effective than the plant materials	–	–	–	–	–
COc1ccc(C=Cc2cc(OC)cc(OC)c2)cc1 [resveratrol trimethylether]	–	–	–	–	–	–	–	–	–	–	–	–	only slightly	–	–	–	–
COc1cc(/C=C/c2ccc(O)cc2)cc(OC)c1 [pterostilbene]	29	18	110.5	7.9	1.8	137.0	228.1	447.8	82.7	185.1	–	–	–	7.1	–	–	–
CC(C)(Oc1ccc(C2CC2(Cl)Cl)cc1)C(=O)O (stereo not drawn) [ciprofibrate]	–	–	–	–	–	–	–	–	–	–	–	–	–	–	19460±1466	about 5 fold	acts as an agonist of PPARα
